{
  "source": "patent US20150105252A1",
  "about": "“SUBSTITUTED PYRAZOLES AS HERBICIDES” (E I DU PONT DE NEMOURS AND COMPANY, priority 2013, published 2015)",
  "key": {"wheat": {"system": "wheat", "test": "Test A postemergence", "format": "in vivo, Triticum aestivum", "method_in_brief": "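Both timings tested concurrently in loam/sand soil: preemergence by directed soil spray, postemergence on plants of 2–10 cm at the one- to two-leaf stage. Greenhouse holding period was approximately 10 days before visual injury assessment (0–100, 0 = no effect).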"}, "corn": {"system": "corn", "test": "Test C preemergence", "format": "in vivo, Zea mays", "conditions": "for Corn plant response rating: scale 0 to 100 (0 no effect, 100 complete control)", "method_in_brief": "(§1)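 Visual control ratings on a 0–100 scale (100 = complete control) made against untreated controls after 13 to 15 days in greenhouse. Compounds applied in surfactant-containing solvent mixture, either preemergence to loam/sand-sown seeds or postemergence to 1- to 4-leaf plants (2–18 cm) in peat medium.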"}, "lambsquarters": {"system": "lambsquarters", "test": "Test C preemergence", "format": "in vivo, Chenopodium album", "conditions": "for Lambsquarters plant response rating: scale 0 to 100 (0 no effect, 100 complete control)", "method_in_brief": "as §1"}, "nutsedge, yellow": {"system": "nutsedge, yellow", "test": "Test C preemergence", "format": "in vivo, Cyperus esculentus", "conditions": "for Nutsedge, Yellow plant response rating: scale 0 to 100 (0 no effect, 100 complete control)", "method_in_brief": "as §1"}, "waterhemp": {"system": "waterhemp", "test": "Test C preemergence", "format": "in vivo, Amaranthus rudis", "conditions": "for Waterhemp plant response rating: scale 0 to 100 (0 no effect, 100 complete control)", "method_in_brief": "as §1"}, "velvetleaf [1]": {"system": "velvetleaf", "test": "Test C preemergence", "format": "in vivo, Abutilon theophrasti", "conditions": "for Velvetleaf plant response rating: scale 0 to 100 (0 no effect, 100 complete control)", "method_in_brief": "as §1"}, "blackgrass": {"system": "blackgrass", "test": "Test C postemergence", "format": "in vivo, Alopecurus myosuroides", "method_in_brief": "as §1"}, "soybean": {"system": "soybean", "test": "Test C postemergence", "format": "in vivo, Glycine max", "method_in_brief": "as §1"}, "barnyardgrass": {"system": "barnyardgrass", "test": "Test C postemergence", "format": "in vivo, Echinochloa crus-galli", "method_in_brief": "as §1"}, "oilseed rape": {"system": "oilseed rape", "test": "Test C postemergence", "format": "in vivo, Brassica napus", "method_in_brief": "as §1"}, "kochia": {"system": "kochia", "test": "Test C postemergence", "format": "in vivo, Kochia scoparia", "method_in_brief": "as §1"}, "velvetleaf [2]": {"system": "velvetleaf", "test": "Test C postemergence", "format": "in vivo, Abutilon theophrasti", "method_in_brief": "as §1"}, "[3]": {"conditions": "preemergence, 31 g ai/ha, visual rating, 13 to 15 days"}, "[4]": {"conditions": "preemergence, 62 g ai/ha, 13 to 15 days"}, "[5]": {"conditions": "preemergence, 125 g ai/ha, 13 to 15 days, scale 0 to 100, 0 = no effect, 100 = complete control"}, "[6]": {"conditions": "Postemergence, 31 g ai/ha, visually evaluated after 13 to 15 days"}, "[7]": {"conditions": "postemergence, 62 g ai/ha, scale 0 to 100"}, "[8]": {"conditions": "postemergence, 250 g ai/ha, scale 0 to 100 (0 no effect, 100 complete control)"}, "[9]": {"conditions": "postemergence, 125 g ai/ha, scale 0 to 100, 0 no effect, 100 complete control"}},
  "data": [
    {"smiles": "CCOc1cc(C(=O)NCC(F)(F)F)nn1Cc1ccnc(OC(F)F)c1", "note": "[Compound 128]", "values": [
      {"measurement": "Wheat plant response rating", "setting": "wheat; Postemergence, 500 g ai/ha, 0 to 100 scale (0 no effect, 100 complete control)", "result": 90},
      {"measurement": "Wheat plant response rating", "setting": "wheat; postemergence, 125 g ai/ha, about 10 days, visual rating on 0 to 100 scale (0 no effect, 100 complete control)", "result": 70},
      {"measurement": "Plant response rating (scale of 0 to 100), Corn", "setting": "corn; Preemergence, 250 g ai/ha", "result": 70},
      {"measurement": "Corn plant response rating", "setting": "corn; [3]", "result": 15},
      {"measurement": "Corn plant response rating", "setting": "corn; [4]", "result": 45},
      {"measurement": "Plant response rating, Corn", "setting": "corn; [5]", "result": 65},
      {"measurement": "Plant response rating (scale of 0 to 100), Lambsquarters", "setting": "lambsquarters; Preemergence, 250 g ai/ha", "result": 98},
      {"measurement": "Lambsquarters plant response rating", "setting": "lambsquarters; [3]", "result": 98},
      {"measurement": "Lambsquarters plant response rating", "setting": "lambsquarters; [4]", "result": 100},
      {"measurement": "Plant response rating, Lambsquarters", "setting": "lambsquarters; [5]", "result": 98},
      {"measurement": "Plant response rating (scale of 0 to 100), Nutsedge, Yellow", "setting": "nutsedge, yellow; Preemergence, 250 g ai/ha", "result": 90},
      {"measurement": "Nutsedge, Yellow plant response rating", "setting": "nutsedge, yellow; [3]", "result": 45},
      {"measurement": "Nutsedge, Yellow plant response rating", "setting": "nutsedge, yellow; [4]", "result": 75},
      {"measurement": "Plant response rating, Nutsedge, Yellow", "setting": "nutsedge, yellow; [5]", "result": 80},
      {"measurement": "Plant response rating (scale of 0 to 100), Waterhemp", "setting": "waterhemp; Preemergence, 250 g ai/ha", "result": 100},
      {"measurement": "Waterhemp plant response rating", "setting": "waterhemp; [3]", "result": 100},
      {"measurement": "Waterhemp plant response rating", "setting": "waterhemp; [4]", "result": 100},
      {"measurement": "Plant response rating, Waterhemp", "setting": "waterhemp; [5]", "result": 100},
      {"measurement": "Plant response rating (scale of 0 to 100), Velvetleaf", "setting": "velvetleaf [1]; Preemergence, 250 g ai/ha", "result": 100},
      {"measurement": "Velvetleaf plant response rating", "setting": "velvetleaf [1]; [3]", "result": 5},
      {"measurement": "Velvetleaf plant response rating", "setting": "velvetleaf [1]; [4]", "result": 100},
      {"measurement": "Plant response rating, Velvetleaf", "setting": "velvetleaf [1]; [5]", "result": 100},
      {"measurement": "Plant response rating (scale of 0 to 100 where 0 is no effect and 100 is complete control), Blackgrass", "setting": "blackgrass; [6]", "result": 10},
      {"measurement": "Blackgrass plant response rating", "setting": "blackgrass; [7]", "result": 5},
      {"measurement": "Plant response rating, Blackgrass", "setting": "blackgrass; [8]", "result": 80},
      {"measurement": "Plant response rating, Blackgrass", "setting": "blackgrass; [9]", "result": 10},
      {"measurement": "Plant response rating (scale of 0 to 100 where 0 is no effect and 100 is complete control), Soybean", "setting": "soybean; [6]", "result": 65},
      {"measurement": "Soybean plant response rating", "setting": "soybean; [7]", "result": 95},
      {"measurement": "Plant response rating, Soybean", "setting": "soybean; [8]", "result": 98},
      {"measurement": "Plant response rating, Soybean", "setting": "soybean; [9]", "result": 95},
      {"measurement": "Plant response rating (scale of 0 to 100 where 0 is no effect and 100 is complete control), Barnyardgrass", "setting": "barnyardgrass; [6]", "result": 5},
      {"measurement": "Barnyardgrass plant response rating", "setting": "barnyardgrass; [7]", "result": 5},
      {"measurement": "Plant response rating, Barnyardgrass", "setting": "barnyardgrass; [8]", "result": 60},
      {"measurement": "Plant response rating, Barnyardgrass", "setting": "barnyardgrass; [9]", "result": 15},
      {"measurement": "Plant response rating (scale of 0 to 100 where 0 is no effect and 100 is complete control), Oilseed Rape", "setting": "oilseed rape; [6]", "result": 50},
      {"measurement": "Oilseed Rape plant response rating", "setting": "oilseed rape; [7]", "result": 60},
      {"measurement": "Plant response rating, Oilseed Rape", "setting": "oilseed rape; [8]", "result": 90},
      {"measurement": "Plant response rating, Oilseed Rape", "setting": "oilseed rape; [9]", "result": 60},
      {"measurement": "Plant response rating (scale of 0 to 100 where 0 is no effect and 100 is complete control), Kochia", "setting": "kochia; [6]", "result": 60},
      {"measurement": "Kochia plant response rating", "setting": "kochia; [7]", "result": 65},
      {"measurement": "Plant response rating, Kochia", "setting": "kochia; [8]", "result": 90},
      {"measurement": "Plant response rating, Kochia", "setting": "kochia; [9]", "result": 65},
      {"measurement": "Plant response rating (scale of 0 to 100 where 0 is no effect and 100 is complete control), Velvetleaf", "setting": "velvetleaf [2]; [6]", "result": 10},
      {"measurement": "Velvetleaf plant response rating", "setting": "velvetleaf [2]; [7]", "result": 15},
      {"measurement": "Plant response rating, Velvetleaf", "setting": "velvetleaf [2]; [8]", "result": 65},
      {"measurement": "Plant response rating, Velvetleaf", "setting": "velvetleaf [2]; [9]", "result": 35}
    ]}
  ]
}
